We go through twelve compounds from article PMC12029179, “6-Chlorocoumarin Conjugates with Nucleobases and Nucleosides as Potent Anti-Hepatitis C Virus Agents” (Molecules, 2025).

Numbered stars: 1 amine (or outer) side, 2 acyl side, 3 side chain; on linkers, the order of the positions; unused ones are H or OH. Bridge positions count the residues as written; N and C are the ends. Square brackets hold non-standard residues; d marks the D form. Peptide text beside a SMILES is read from it. I, II: the chains in the order shown. Actinocin(9to1) = Cc1c2oc3c(C)ccc(C(=O)[*:1])c3nc-2c(C(=O)[*:2])c(N)c1=O; NMeV = CN[C@H](C(=O)O)C(C)C; Sar = CNCC(=O)O

Data set [1] relates to HCV genotype 1b subgenomic replicon. The data set is described as follows: Anti-HCV assay in Huh 5-2 cells (luciferase replicon readout). The following applies: for EC50: Huh-5-2, Huh 5-2 cells, luminescence. The class given is cell-based, hepatitis C virus (HCV). From the text: (§1) An evaluation of the antiviral effects of the conjugated compounds was initially performed in Huh 5-2 cells utilizing the HCV genotype 1b subgenomic replicon system, based on previously reported procedures. By analyzing the dose–response curves, we calculated the concentration of each compound that inhibited the viral replication by 50% (EC50) and the concentration that reduced the host-cell metabolic activity by 50% (CC50). These values were then used to compute the selectivity index (SI = CC50/EC50), which serves as an indicator of a compound’s therapeutic window. Even if an EC50 was determined from the dose–response curve in the antiviral assay, the compounds that were evaluated may not qualify as promising hits. […] It is likely that the antiviral activity observed in the other compounds is due to their nonspecific or pleiotropic effects on the host cell.
Huh 5-2 cells were plated in white, tissue culture-treated 96-well view plates (Packard, Canberra, Canada) at a density of 5 × 10^3 cells per well, using complete Dulbecco’s Modified Eagle Medium (DMEM) containing 250 µg/mL G418. Following 24 h incubation at 37 °C with 5% CO2, the medium was discarded and serial 3-fold dilutions of the test compounds—prepared in complete DMEM lacking G418—were added to reach a final volume of 100 µL per well. After an additional 4-day incubation period under the same conditions, the medium was removed, and luciferase activity was assessed using the Steady-Glo luciferase assay kit (Promega, Leiden, The Netherlands). Luminescence was measured with a Luminoskan Ascent reader (Thermo, Vantaa, Finland). The EC50 value was determined as the compound concentration resulting in a 50% decrease in luciferase signal.
For orientation: Replicon systems follow genome replication, usually without infectious particles.

A short description of data set [2]: Host-cell metabolic activity (MTS assay) in Huh 5-2 cells. The class given is cell-based. The following applies: human.
From the text: as §1

Data set [3] concerns Detroit 551 cells. Put plainly: Cell viability (MTS) assay in Detroit 551 cells. The format is cell-based. The following applies: Homo sapiens, Detroit 551, 72 h, read-out: IC50 (cell survival rate of 50%). As for the experimental part:
Detroit 551 cells, a human fibroblast cell line, are routinely employed to assess both acute and chronic toxicity in normal human cells. Evaluating the cytotoxicity of compounds in Detroit 551 cells helps to identify potential safety concerns early in drug development. The three promising leads, 7a, 7b, and 18, were tested in a Detroit 551 assay using the antineoplastic and antibiotic agent actinomycin D as a positive control.
Detroit 551 cells were harvested and seeded into a 96-well plate, then incubated at 37 °C for 24 h. A serial dilution of the test compound was prepared in eight three-fold concentrations (20,000 nM, 6667 nM, 2222 nM, 741 nM, 247 nM, 82 nM, 27 nM, and 9 nM), and 10 µL of each dilution was added to the corresponding wells. The plate was then returned to 37 °C for an additional 72 h of incubation. After this incubation, a 3-(4,5-dimethylthiazol-2-yl)-5-(3-carboxymethoxyphenyl)-2-(4-sulfophenyl)-2H-tetrazolium (MTS) assay medium (mixed in a 2:0.1 ratio of MTS–phenazine methyl sulfate (PMS)) was prepared. The plate was moved to a biological safety cabinet, and 21 µL of the MTS medium was added to each well. The plate was then incubated at 37 °C for 90 min before absorbance was measured at 490 nm on a Victor 2 plate reader (PerkinElmer, Inc., Waltham, MA, USA). Data were subsequently analyzed to assess cytotoxicity.

Where [4] appears, read: Hepatitis C virus, primary screening, tested starting at 50 μg/mL.
The mark [5] stands for this setting: Huh 5-2 cells, primary screening starting at 50 μg/mL.
Setting [6] is: primary screening, tested starting at 50 μg/mL.
Where [7] appears, read: Hepatitis C virus, secondary screen starting at 125 μg/mL, average of triplicate.
Where [8] appears, read: Huh 5-2 cells, secondary screen starting at 125 μg/mL.
Setting [9] is: secondary screen starting at 125 μg/mL.

With `Nc1ncnc2c1nc(SCc1cc3cc(Cl)ccc3oc1=O)n2[C@@H]1O[C@H](CO)[C@@H](O)[C@H]1O` [Compound 3b, 8-[(6′-Chlorocoumarin-3′-yl)methylthio]adenosine], in data set [1] (setting [4]), the EC50 (in general, the concentration at which the effect is half-maximal) came to 32 µM. The “SI (CC50/EC50)” value in data set [1] (setting [5]) was 1.5. Moreover, it took 48 µM to reach half-maximal cytotoxicity in data set [2] (setting [6]) (CC50).
On to `Cc1cn([C@H]2C[C@H](O)[C@@H](CO)O2)c(=O)nc1SCc1cc2cc(Cl)ccc2oc1=O` [Compound 16b, 4-[(6′-Chlorocoumarin-3′-yl)methylthio]thymidine], for which the EC50 in data set [1] (setting [4]) stood at 59 µM. Further, the “SI (CC50/EC50)” value in data set [1] (setting [5]) is reported as >1.9. In addition, the CC50 (in general, the concentration at which the toxic effect on the cells reaches its halfway point) in data set [2] (setting [6]) is > 111 µM.
The corresponding values for `Cc1c[nH]c(=O)nc1SCc1cc2cc(Cl)ccc2oc1=O` [Compound 11b, 4-(6′-Chlorocoumarin-3′-yl)methylthio-5-methyluracil] are 16 µM, >9.1 and > 149 µM.
In turn, `Nc1nc2[nH]c(SCc3cc4cc(Cl)ccc4oc3=O)nc2c(=O)[nH]1` [Compound 5b, 8-[(6’-Chlorocoumarin-3’-yl)methylthio]guanine] came in with an EC50 in data set [1] (setting [4]) of 51 µM. In addition, the “SI (CC50/EC50)” value in data set [1] (setting [5]) was >2.6. Besides, in data set [2] (setting [6]), the CC50 was > 133 µM.
The compound `O=c1nc(SCc2cc3cc(Cl)ccc3oc2=O)cc[nH]1` [Compound 11a, 4-[(6′-Chlorocoumarin-3′-yl)methylthio]uracil] came in with an EC50 in data set [1] (setting [4]) of 18 µM. Moreover, the “SI (CC50/EC50)” value in data set [1] (setting [5]) is on record as >8.6. Moreover, the CC50 in data set [2] (setting [6]) is > 156 µM.
Turning to `Nc1ccnc(SCc2cc3cc(Cl)ccc3oc2=O)n1` [Compound 20, 4-Amino-2-[(6′-chlorocoumarin-3′-yl)methylthio]pyrimidine], the EC50 amounted to 53 µM in data set [1] (setting [4]) and 21 µM in data set [1] (setting [7]). For the same compound, 50 µg/mL produced 69.8% inhibition in data set [1] (Hepatitis C virus, Huh 5-2 cells, at 50 μg/mL). Further, the inhibition (commonly the drop in the measured response relative to a control, in per cent) at 125 µg/mL in data set [1] (Hepatitis C virus, Huh 5-2 cells, at 125 μg/mL) was < 80%. Further, the figures for the “SI (CC50/EC50)” value in data set [1] (setting [5]) and in data set [1] (setting [8]) were >2.9 and >19, respectively. The CC50 was > 156 µM in data set [2] (setting [6]) and > 391 µM in data set [2] (setting [9]).
As for `Nc1nc(SCc2cc3cc(Cl)ccc3oc2=O)c2nc[nH]c2n1` [Compound 9a, 2-Amino-6-[(6′-chlorocoumarin-3′-yl)methylthio]purine], the concentration giving a half-maximal response (EC50) was found to be 65 µM in data set [1] (setting [4]) and 48 µM in data set [1] (setting [7]). In addition, the “SI (CC50/EC50)” value was >2.1 in data set [1] (setting [5]) and >7.3 in data set [1] (setting [8]). In addition, the values for the CC50 in data set [2] (setting [6]) and in data set [2] (setting [9]) were > 139 µM and > 347 µM, respectively.
`O=c1oc2ccc(Cl)cc2cc1CSc1ccn([C@@H]2O[C@H](CO)[C@@H](O)[C@H]2O)c(=O)n1` [Compound 16a, 4-[(6′-Chlorocoumarin-3′-yl)methylthio]uridine] yielded an EC50 in data set [1] (setting [4]) of 16 µM. Moreover, in data set [1] (setting [5]), the “SI (CC50/EC50)” value is recorded as >6.8. In data set [2] (setting [6]), the CC50 is > 108 µM.
For the compound `Nc1nc2c(nc(SCc3cc4cc(Cl)ccc4oc3=O)n2[C@@H]2O[C@H](CO)[C@@H](O)[C@H]2O)c(=O)[nH]1` [Compound 5a, 8-[(6′-Chlorocoumarin-3′-yl)methylthio]guanosine], the EC50 in data set [1] (setting [4]) was > 98 µM. Moreover, the CC50 in data set [2] (setting [6]) was > 98 µM.
Consider `Cc1c2oc3c(C)ccc(C(=O)N[C@@H]4C(=O)N[C@H](C(C)C)C(=O)N5CCC[C@H]5C(=O)N(C)CC(=O)N(C)[C@@H](C(C)C)C(=O)O[C@@H]4C)c3nc-2c(C(=O)N[C@@H]2C(=O)N[C@H](C(C)C)C(=O)N3CCC[C@H]3C(=O)N(C)CC(=O)N(C)[C@@H](C(C)C)C(=O)O[C@@H]2C)c(N)c1=O` [Actinomycin D, actinomycin D, reference compound] (I: T[dV]P[Sar][NMeV] / II: T[dV]P[Sar][NMeV]; ester I:1-I:C, II:1-II:C; linker I:N-II:N via Actinocin(9to1)), for which the IC50 (usually the concentration needed to halve the response being measured) in data set [3] is 15.4 µM.
Compound `Nc1ncnc2[nH]c(SCc3cc4cc(Cl)ccc4oc3=O)nc12` [Compound 3a, 8-[(6′-Chlorocoumarin-3′-yl)methylthio]adenine] gave an EC50 in data set [1] (setting [4]) of 10 µM. Also, the “SI (CC50/EC50)” value in data set [1] (setting [5]) amounted to 6.7. This compound showed a CC50 in data set [2] (setting [6]) of 69 µM.
For `Nc1nc(SCc2cc3cc(Cl)ccc3oc2=O)c2ncn([C@@H]3O[C@H](CO)[C@@H](O)[C@H]3O)c2n1` [Compound 9b, 2-Amino-6-(6′-chlorocoumarin-3′-yl)methylthio-9-(β-D-ribofuranos-1″-yl)purine], in that order: 15 µM, >6.9 and > 102 µM.
